From PubChem BioAssay (NCI)
Values joined by “and” are separate entries in the source; they are usually repeats but may differ in a detail not shown here. Equal entries are not always repeated.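 Method: 48-hour compound exposure of cells in 96-well plates, five concentrations, linear interpolation of endpoints. GI50 = concentration required for 50% inhibition of growth. Definition used: TGI = concentration required for complete inhibition of growth.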

Legend:
Experiment in all cases: DTP human tumour cell line panel, 48 h
RXF-631 renal = test system: RXF-631 renal
DLD-1 colon = test system: DLD-1 colon
DMS 114 small cell lung = test system: DMS 114 small cell lung
A549 NSCLC = test system: A549 NSCLC
LXFL 529 NSCLC = test system: LXFL 529 NSCLC
NCI-H460 lung = test system: NCI-H460 lung
RPMI-8226 leukemia = test system: RPMI-8226 leukemia
RXF 393 renal = test system: RXF 393 renal
LOX IMVI melanoma = test system: LOX IMVI melanoma
MALME-3M melanoma = test system: MALME-3M melanoma
OVCAR-8 ovarian = test system: OVCAR-8 ovarian
M14 melanoma = test system: M14 melanoma
SK-MEL-2 melanoma = test system: SK-MEL-2 melanoma
TK-10 renal = test system: TK-10 renal
SN12C renal = test system: SN12C renal
SF-295 CNS = test system: SF-295 CNS
CAKI-1 renal = test system: CAKI-1 renal
HOP-92 NSCLC = test system: HOP-92 NSCLC
SF-268 CNS = test system: SF-268 CNS
IGROV1 ovarian = test system: IGROV1 ovarian
K-562 leukemia = test system: K-562 leukemia
HCT-116 colon = test system: HCT-116 colon
OVCAR-4 ovarian = test system: OVCAR-4 ovarian
XF 498 CNS = test system: XF 498 CNS
SNB-75 CNS = test system: SNB-75 CNS
HCT-15 colon = test system: HCT-15 colon
NCI-H226 lung = test system: NCI-H226 lung
COLO 205 colon = test system: COLO 205 colon
DMS 273 small cell lung = test system: DMS 273 small cell lung
CCRF-CEM leukemia = test system: CCRF-CEM leukemia
A498 renal = test system: A498 renal
UO-31 renal = test system: UO-31 renal
UACC-257 melanoma = test system: UACC-257 melanoma
U251 CNS = test system: U251 CNS
ACHN renal = test system: ACHN renal
KM20L2 colon = test system: KM20L2 colon
OVCAR-5 ovarian = test system: OVCAR-5 ovarian
SR leukemia = test system: SR leukemia
SNB-19 CNS = test system: SNB-19 CNS
EKVX NSCLC = test system: EKVX NSCLC
MOLT-4 leukemia = test system: MOLT-4 leukemia
HL-60(TB) leukemia = test system: HL-60(TB) leukemia
SK-MEL-28 melanoma = test system: SK-MEL-28 melanoma
KM12 colon = test system: KM12 colon
NCI-H23 lung = test system: NCI-H23 lung
HCC-2998 colon = test system: HCC-2998 colon
SW-620 colon = test system: SW-620 colon
SF-539 CNS = test system: SF-539 CNS
HOP-18 NSCLC = test system: HOP-18 NSCLC
HT29 colon = test system: HT29 colon
SNB-78 CNS = test system: SNB-78 CNS
786-0 renal = test system: 786-0 renal
OVCAR-3 ovarian = test system: OVCAR-3 ovarian
MDA-MB-435 = test system: MDA-MB-435
SK-OV-3 ovarian = test system: SK-OV-3 ovarian
SK-MEL-5 melanoma = test system: SK-MEL-5 melanoma
HOP-62 NSCLC = test system: HOP-62 NSCLC
NCI-H522 lung = test system: NCI-H522 lung
UACC-62 melanoma = test system: UACC-62 melanoma

CCOC(=O)/C=C(\C)c1ccc(Cl)cc1
TGI (RXF-631 renal): > 100 µM | TGI (DLD-1 colon): > 100 µM | TGI (DMS 114 small cell lung): > 100 µM | TGI (A549 NSCLC): > 100 µM | TGI (LXFL 529 NSCLC): > 100 µM | TGI (NCI-H460 lung): > 100 µM | TGI (RPMI-8226 leukemia): > 100 µM | TGI (RXF 393 renal): > 100 µM | TGI (LOX IMVI melanoma): > 100 µM | TGI (MALME-3M melanoma): > 100 µM | TGI (OVCAR-8 ovarian): > 100 µM | TGI (M14 melanoma): > 100 µM | TGI (SK-MEL-2 melanoma): > 100 µM | TGI (TK-10 renal): > 100 µM | TGI (SN12C renal): > 100 µM | TGI (SF-295 CNS): > 100 µM | TGI (CAKI-1 renal): > 100 µM | TGI (HOP-92 NSCLC): > 100 µM | TGI (SF-268 CNS): > 100 µM | TGI (IGROV1 ovarian): > 100 µM | TGI (K-562 leukemia): > 100 µM | TGI (HCT-116 colon): > 100 µM | TGI (OVCAR-4 ovarian): > 100 µM | TGI (XF 498 CNS): > 100 µM | TGI (SNB-75 CNS): > 100 µM | TGI (HCT-15 colon): > 100 µM | TGI (NCI-H226 lung): 98.4 µM | TGI (COLO 205 colon): > 100 µM | TGI (DMS 273 small cell lung): > 100 µM | TGI (CCRF-CEM leukemia): > 100 µM | TGI (A498 renal): > 100 µM | TGI (UO-31 renal): > 100 µM | TGI (UACC-257 melanoma): > 100 µM | TGI (U251 CNS): > 100 µM | TGI (ACHN renal): > 100 µM | TGI (KM20L2 colon): > 100 µM | TGI (OVCAR-5 ovarian): > 100 µM | TGI (SR leukemia): > 100 µM | TGI (SNB-19 CNS): > 100 µM | TGI (EKVX NSCLC): > 100 µM | TGI (MOLT-4 leukemia): > 100 µM | TGI (HL-60(TB) leukemia): > 100 µM | TGI (SK-MEL-28 melanoma): > 100 µM | TGI (KM12 colon): > 100 µM | TGI (NCI-H23 lung): > 100 µM | TGI (HCC-2998 colon): > 100 µM | TGI (SW-620 colon): > 100 µM | TGI (SF-539 CNS): > 100 µM | TGI (HOP-18 NSCLC): > 100 µM | TGI (HT29 colon): > 100 µM | TGI (SNB-78 CNS): > 100 µM

CC(C)S(=O)(=O)ON1C(=O)c2ccc(N(C)C)cc2C1=O
TGI (RXF-631 renal): 19.7 µM | TGI (A549 NSCLC): 58 µM | TGI (LXFL 529 NSCLC): 25.1 µM | TGI (NCI-H460 lung): 37.3 µM | GI50 (RPMI-8226 leukemia): 1710 nM | TGI (RPMI-8226 leukemia): 6.46 µM and 9.12 µM | GI50 (RXF 393 renal): 5.34 µM | TGI (RXF 393 renal): 17.9 µM | GI50 (786-0 renal): 19.5 µM | TGI (786-0 renal): 42 µM | GI50 (LOX IMVI melanoma): 9.69 µM | TGI (LOX IMVI melanoma): 29.6 µM | GI50 (MALME-3M melanoma): 20.5 µM | TGI (MALME-3M melanoma): 8.68 µM and 53.5 µM | GI50 (OVCAR-8 ovarian): 5.05 µM | TGI (OVCAR-8 ovarian): 6.47 µM and 63.7 µM | TGI (M14 melanoma): 40 µM | GI50 (SK-MEL-2 melanoma): 19.1 µM | TGI (SK-MEL-2 melanoma): 45 µM | TGI (TK-10 renal): 37.1 µM | TGI (SN12C renal): 34.3 µM | TGI (OVCAR-3 ovarian): 24.5 µM | TGI (SF-295 CNS): > 67.1 µM | GI50 (CAKI-1 renal): 13.6 µM | TGI (CAKI-1 renal): 28.7 µM | GI50 (HOP-92 NSCLC): 28 µM | TGI (HOP-92 NSCLC): 54.5 µM | TGI (SF-268 CNS): 66.8 µM | TGI (IGROV1 ovarian): 43 µM | GI50 (K-562 leukemia): 2480 nM | TGI (K-562 leukemia): 21.3 µM | TGI (MDA-MB-435): 4.75 µM | TGI (SK-OV-3 ovarian): > 78.6 µM | GI50 (HCT-116 colon): 2440 nM | TGI (HCT-116 colon): 9.13 µM and 30.8 µM | GI50 (OVCAR-4 ovarian): 6.01 µM | TGI (OVCAR-4 ovarian): 33.7 µM | TGI (XF 498 CNS): 32.3 µM | GI50 (SNB-75 CNS): 8.66 µM | TGI (SNB-75 CNS): 39.3 µM | TGI (HCT-15 colon): 32.3 µM | TGI (NCI-H226 lung): > 60.9 µM | GI50 (COLO 205 colon): 8.36 µM | TGI (COLO 205 colon): 21.5 µM | GI50 (SK-MEL-5 melanoma): 15.3 µM | TGI (SK-MEL-5 melanoma): 31.4 µM | TGI (DMS 273 small cell lung): 35.6 µM | GI50 (CCRF-CEM leukemia): 290 nM | TGI (CCRF-CEM leukemia): 1.06 µM and 9.21 µM | TGI (A498 renal): > 60.7 µM | TGI (HOP-62 NSCLC): > 63.4 µM | TGI (UO-31 renal): 34.5 µM | TGI (UACC-257 melanoma): 38.8 µM | TGI (U251 CNS): 30.3 µM | TGI (ACHN renal): 33.7 µM | GI50 (NCI-H522 lung): 1790 nM | TGI (NCI-H522 lung): 4.42 µM and 3.85 µM | TGI (KM20L2 colon): 41.2 µM | TGI (OVCAR-5 ovarian): 42 µM | GI50 (SR leukemia): 752 nM | TGI (SR leukemia): 3.18 µM and 9.78 µM | TGI (SNB-19 CNS): > 100 µM | TGI (EKVX NSCLC): 41.7 µM | GI50 (MOLT-4 leukemia): 400 nM | TGI (MOLT-4 leukemia): 4.57 µM and > 22.8 µM | GI50 (HL-60(TB) leukemia): 417 nM | TGI (SK-MEL-28 melanoma): 56.1 µM | TGI (KM12 colon): 46.4 µM | TGI (UACC-62 melanoma): 33.7 µM | TGI (NCI-H23 lung): > 59.2 µM | TGI (HCC-2998 colon): 18 µM | GI50 (SW-620 colon): 4.01 µM | TGI (SW-620 colon): 38.6 µM | TGI (SF-539 CNS): 37.4 µM | TGI (HOP-18 NSCLC): 27.3 µM | TGI (HT29 colon): > 58 µM | TGI (SNB-78 CNS): > 100 µM
